Measured values: the NIST ThermoML archive (doi:10.1021/je500804j)

Experiment: mn = molality of the nth substance listed, in mol/kg
Details: 101 kPa, Liquid, Alternating current cell with electrodes

CCCCCCCC[N+](C)(C)CCCCCC[N+](C)(C)CCCCCCCC.[Br-].[Br-] + O
Details | electrical conductivity [S/m]
293.15 K, m1 = 0.1245 | 0.9968
298.15 K, m1 = 0.00419 | 0.07905
298.15 K, m1 = 0.00827 | 0.1464
298.15 K, m1 = 0.01224 | 0.2076
298.15 K, m1 = 0.0161 | 0.2647
298.15 K, m1 = 0.01987 | 0.3161
298.15 K, m1 = 0.02353 | 0.3644
298.15 K, m1 = 0.02711 | 0.4098
298.15 K, m1 = 0.03059 | 0.4515
298.15 K, m1 = 0.03399 | 0.4914
298.15 K, m1 = 0.0373 | 0.5292
298.15 K, m1 = 0.04053 | 0.5645
298.15 K, m1 = 0.04369 | 0.5979
298.15 K, m1 = 0.04677 | 0.6299
298.15 K, m1 = 0.04978 | 0.6602
298.15 K, m1 = 0.05272 | 0.6887
298.15 K, m1 = 0.05559 | 0.7156
298.15 K, m1 = 0.0584 | 0.7419
298.15 K, m1 = 0.06114 | 0.7666
298.15 K, m1 = 0.06383 | 0.7898
298.15 K, m1 = 0.06645 | 0.812
298.15 K, m1 = 0.06902 | 0.833
298.15 K, m1 = 0.07154 | 0.8526
298.15 K, m1 = 0.074 | 0.8713
298.15 K, m1 = 0.07641 | 0.8887
298.15 K, m1 = 0.07877 | 0.9051
298.15 K, m1 = 0.08108 | 0.9203
298.15 K, m1 = 0.08334 | 0.9348
298.15 K, m1 = 0.08556 | 0.9485
298.15 K, m1 = 0.08773 | 0.9616
298.15 K, m1 = 0.08987 | 0.9739
298.15 K, m1 = 0.09196 | 0.9852
298.15 K, m1 = 0.09401 | 0.9959
298.15 K, m1 = 0.09602 | 1.006
298.15 K, m1 = 0.09799 | 1.016
298.15 K, m1 = 0.09992 | 1.025
298.15 K, m1 = 0.1018 | 1.033
298.15 K, m1 = 0.1037 | 1.042
298.15 K, m1 = 0.1055 | 1.05
298.15 K, m1 = 0.1073 | 1.058
298.15 K, m1 = 0.1091 | 1.066
298.15 K, m1 = 0.1108 | 1.073
298.15 K, m1 = 0.1125 | 1.08
298.15 K, m1 = 0.1142 | 1.087
298.15 K, m1 = 0.1158 | 1.094
298.15 K, m1 = 0.1174 | 1.1
298.15 K, m1 = 0.119 | 1.107
298.15 K, m1 = 0.1206 | 1.112
298.15 K, m1 = 0.1221 | 1.118
298.15 K, m1 = 0.1236 | 1.124
298.15 K, m1 = 0.1251 | 1.13
303.15 K, m1 = 0.00379 | 0.0878
303.15 K, m1 = 0.00748 | 0.1271
303.15 K, m1 = 0.01108 | 0.1968
303.15 K, m1 = 0.01459 | 0.2594
303.15 K, m1 = 0.01801 | 0.3174
303.15 K, m1 = 0.02135 | 0.3714
303.15 K, m1 = 0.02461 | 0.4209
303.15 K, m1 = 0.02779 | 0.4681
303.15 K, m1 = 0.0309 | 0.5124
303.15 K, m1 = 0.03394 | 0.5542
303.15 K, m1 = 0.03691 | 0.5939
303.15 K, m1 = 0.03981 | 0.6314
303.15 K, m1 = 0.04264 | 0.6668
303.15 K, m1 = 0.04542 | 0.7005
303.15 K, m1 = 0.04813 | 0.7326
303.15 K, m1 = 0.05078 | 0.7638
303.15 K, m1 = 0.05338 | 0.7917
303.15 K, m1 = 0.05592 | 0.8194
303.15 K, m1 = 0.05841 | 0.8457
303.15 K, m1 = 0.06085 | 0.8704
303.15 K, m1 = 0.06324 | 0.8926
303.15 K, m1 = 0.06558 | 0.9126
303.15 K, m1 = 0.06787 | 0.9342
303.15 K, m1 = 0.07011 | 0.9547
303.15 K, m1 = 0.07232 | 0.9738
303.15 K, m1 = 0.07448 | 0.9921
303.15 K, m1 = 0.07659 | 1.01
303.15 K, m1 = 0.07867 | 1.026
303.15 K, m1 = 0.08071 | 1.04
303.15 K, m1 = 0.08271 | 1.055
303.15 K, m1 = 0.08467 | 1.069
303.15 K, m1 = 0.0866 | 1.082
303.15 K, m1 = 0.08849 | 1.094
303.15 K, m1 = 0.09034 | 1.107
303.15 K, m1 = 0.09217 | 1.118
303.15 K, m1 = 0.09396 | 1.129
303.15 K, m1 = 0.09572 | 1.139
303.15 K, m1 = 0.09745 | 1.148
303.15 K, m1 = 0.09915 | 1.158
303.15 K, m1 = 0.1008 | 1.168
303.15 K, m1 = 0.1025 | 1.175
303.15 K, m1 = 0.1041 | 1.183
303.15 K, m1 = 0.1057 | 1.191
303.15 K, m1 = 0.1072 | 1.198
303.15 K, m1 = 0.1087 | 1.206
303.15 K, m1 = 0.1103 | 1.215
303.15 K, m1 = 0.1118 | 1.22
303.15 K, m1 = 0.1132 | 1.228
